Experimental data as given in US11560373B2, “Compounds and their use as PDE4 activators” (Mironid Limited, priority 2018, dated 2023).

Each compound was assayed against T1, PDE4D5 (Homo sapiens, UniProt Q08499) (assay: PDE assay, [3H]cAMP hydrolysis by HEK-PDE4D5 cell lysate cytosol fraction). Settings: 30 μM; mean % increase in counts over basal activity.
T1 construct: stably expressed the full-length human PDE4D5, PDE4B1 and PDE4A4 long isoforms; made in house
T1 sequence (Q08499 1-745 isoform Q08499-6): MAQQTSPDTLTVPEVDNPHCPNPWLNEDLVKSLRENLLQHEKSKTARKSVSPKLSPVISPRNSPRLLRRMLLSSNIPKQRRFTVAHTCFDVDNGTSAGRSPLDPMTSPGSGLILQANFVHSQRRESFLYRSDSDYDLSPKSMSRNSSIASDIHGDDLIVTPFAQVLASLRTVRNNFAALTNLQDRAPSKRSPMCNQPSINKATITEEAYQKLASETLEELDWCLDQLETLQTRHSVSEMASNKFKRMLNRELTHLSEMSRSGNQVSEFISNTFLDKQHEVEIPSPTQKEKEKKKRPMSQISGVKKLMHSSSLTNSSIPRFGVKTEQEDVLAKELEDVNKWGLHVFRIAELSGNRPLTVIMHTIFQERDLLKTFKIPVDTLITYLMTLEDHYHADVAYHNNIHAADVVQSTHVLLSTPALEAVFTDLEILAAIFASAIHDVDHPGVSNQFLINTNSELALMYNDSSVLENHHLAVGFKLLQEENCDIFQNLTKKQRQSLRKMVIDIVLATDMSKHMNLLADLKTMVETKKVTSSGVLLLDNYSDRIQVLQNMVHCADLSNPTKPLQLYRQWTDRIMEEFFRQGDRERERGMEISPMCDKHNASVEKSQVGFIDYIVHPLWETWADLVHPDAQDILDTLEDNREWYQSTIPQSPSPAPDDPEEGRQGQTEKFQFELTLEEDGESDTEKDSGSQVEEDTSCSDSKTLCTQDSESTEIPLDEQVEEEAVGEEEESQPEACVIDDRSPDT
Assay type: biochemical
Experimental: HEK 293 cells were transfected with pDEST™ PDE4 expression vectors using Lipofectamine LTX/Plus reagent (Invitrogen) as outlined by the manufacturer and clonal isolates expanded to obtain cell lines that stably expressed the full-length human PDE4D5, PDE4B1 and PDE4A4 long isoforms and the full length human PDE4B2 short isoform. These were called the HEK-PDE4D5, HEK-PDE4B1, HEK-PDE4A4 and HEK-PDE4B2 cell lines, respectively.
HEK-PDE4D5 cells were seeded out in 100 mm plates and incubated at 37° C. in an atmosphere of 5% CO2, 95% air. Cell lysates were prepared using KHEM buffer [50 mM KCl, 10 mM EGTA, 50 mM HEPES (pH 7.2), 1.92 mM MgCl2].
To prepare the cell lysates, the 100 mm plates containing the cells were placed on ice and washed with ice-cold PBS (phosphate buffered saline, pH 7.4). KHEM buffer (500 μl) was added to the cells. Cells were then scraped off the plate and triturated using a needle (BD Microlance™ 0.8, 40 mm). The lysed cells were then centrifuged at 2000 rpm for 10 minutes to remove cell debris and the supernatant (cell lysate containing recombinant PDE4D5) was transferred to a fresh tube and kept on ice.
The cell lysate containing recombinant PDE4D5 was transferred into a centrifuge tube and placed into an ultracentrifuge (BECKMAN COULTER) and spun at high speed (100,000 g) for 30 minutes at 4° C. The cytosol fraction was then collected and its protein amount determined using a BCA protein assay.
PDE assays were performed in thin walled V-bottomed 96-well plates. The assays were performed at a final concentration of 10 mM Tris/5 mM MgCl2 plus PDE4D5 cell lysate cytosol fraction, containing over-expressed PDE4D5, with and without test compound. The lysate/compound mix were incubated together for 15 min at room temperature on an orbital shaker prior to addition of [^3H] cAMP (final concentration 1 μM [^3H] cAMP; Perkin Elmer) to a final volume of 50 μl per reaction. The reactions were then incubated for 10 minutes at 30° C., terminated by heating for 2 min at 95° C. and allowed to cool. Snake venom (12.5 μl of 1 mg/ml; Crotalus atrox, Sigma) was then added and the plates were agitated and incubated for a further 15 minutes at 30° C. Dowex ion exchange resin (Sigma, chloride form, 200-400 mesh; 200 μl; prepared as a 1:1 Dowex: water stock, thoroughly re-suspended and diluted 2:1 with ethanol) was then added to each well and the plates incubated for 15 min at room temperature on an orbital shaker ensuring sufficient agitation for resin suspension (550 RPM). The reaction mixture was then transferred to a 96 well filter plate (Millipore; […] pore size) and filtered into a receiving 96-well plate to remove the dowex suspension. 30 μL of the filtered solution was then transferred to the wells of an Opti-plate (Perkin Elmer) 96 well assay plate and 120 μl of Microscint 40 scintillation fluid was added. The plate was then placed on an orbital shaker for 10 min at high speed (900 RPM) to mix the sample with scintillation fluid prior to quantitation using a plate based scintillation counter (Top-Count).
The % increase in counts in the presence of test compound at a particular concentration indicates the % increase in enzyme activity at that concentration.
`CCn1nc(-c2ccc(Cl)c(F)c2)nc1CC(=O)NCc1cccc2cn[nH]c12` [Example 4, 2-[3-(4-Chloro-3-fluorophenyl)-1-ethyl-1H-1,2,4-triazol-5-yl]-N-[(1H-indazol-7-yl)methyl]acetamide] showed an activation at 30 µM of 32.2%. Compound `CCn1nc(-c2ccc(Cl)c(F)c2)nc1CC(=O)NCc1cc(Cl)cc(Cl)c1` [Example 5, 2-[3-(4-Chloro-3-fluorophenyl)-1-ethyl-1H-1,2,4-triazol-5-yl]-N-(3,5-dichlorobenzyl)acetamide] has an activation at 30 µM of 56.1%. `CCn1nc(-c2ccc(Cl)c(F)c2)nc1CC(=O)Nc1cc(C)on1` [Example 6, 2-[3-(4-Chloro-3-fluorophenyl)-1-ethyl-1H-1,2,4-triazol-5-yl]-N-(5-methyl-1,2-oxazol-3-yl)acetamide] was tested, and the activation at 30 µM was 38.5%. In the case of `CCn1nc(-c2ccc(Cl)c(F)c2)nc1CC(=O)NCc1ccc2[nH]ncc2c1` [Example 7, 2-[3-(4-Chloro-3-fluorophenyl)-1-ethyl-1H-1,2,4-triazol-5-yl]-N-[(1H-indazol-5-yl)methyl]acetamide], the activation at 30 µM is reported as 94.1%. For `CCn1nc(-c2ccc(Cl)c(F)c2)nc1CC(=O)Nc1cnccn1` [Example 8, 2-[3-(4-Chloro-3-fluorophenyl)-1-ethyl-1H-1,2,4-triazol-5-yl]-N-(pyrazin-2-yl)acetamide], the activation at 30 µM was 49.6%. `CCn1nc(-c2ccc(Cl)c(F)c2)nc1CC(=O)NCc1ccc2[nH]c(=O)[nH]c2c1` [Example 9, 2-[3-(4-Chloro-3-fluorophenyl)-1-ethyl-1H-1,2,4-triazol-5-yl]-N-[(2-oxo-2,3-dihydro-1H-benzo[d]imidazol-5-yl)methyl]acetamide] showed an activation at 30 µM of 55.6%. For `CCn1nc(-c2ccc(Cl)c(F)c2)nc1CC(=O)NCc1cc(C)cc(Cl)c1` [Example 10, 2-[3-(4-Chloro-3-fluorophenyl)-1-ethyl-1H-1,2,4-triazol-5-yl]-N-[(3-chloro-5-methylphenyl)methyl]acetamide], the activation at 30 µM was 136%. `CCn1nc(-c2ccc(Cl)c(F)c2)nc1CC(=O)NCc1cc(C)cc(F)c1` [Example 11, 2-[3-(4-Chloro-3-fluorophenyl)-1-ethyl-1H-1,2,4-triazol-5-yl]-N-[(3-fluoro-5-methylphenyl)methyl]acetamide] was tested, and the activation at 30 µM was 52.8%. With `CCn1nc(-c2ccc(Cl)c(F)c2)nc1CC(=O)NCc1cc(C)cc(C)c1` [Example 12, 2-[3-(4-Chloro-3-fluorophenyl)-1-ethyl-1H-1,2,4-triazol-5-yl]-N-[(3,5-dimethylphenyl)methyl]acetamide] the activation at 30 µM was 71.6%. Work on `CCn1nc(-c2ccc(Cl)c(F)c2)nc1CC(=O)NCc1cccc(F)c1F` [Example 13, 2-[3-(4-Chloro-3-fluorophenyl)-1-ethyl-1H-1,2,4-triazol-5-yl]-N-[(2,3-difluorophenyl)methyl]acetamide] yielded an activation at 30 µM of 28.4%. `CCOc1cccc(CNC(=O)Cc2nc(-c3ccc(Cl)c(F)c3)nn2CC)c1` [Example 14, 2-[3-(4-Chloro-3-fluorophenyl)-1-ethyl-1H-1,2,4-triazol-5-yl]-N-[(3-ethoxyphenyl)methyl]acetamide] was tested, and the activation at 30 µM was 142%. Compound `CCn1nc(-c2ccc(Cl)c(F)c2)nc1CC(=O)NCc1cc(OC)cc(OC)c1` [Example 15, 2-[3-(4-Chloro-3-fluorophenyl)-1-ethyl-1H-1,2,4-triazol-5-yl]-N-[(3,5-dimethoxyphenyl)methyl]acetamide] has an activation at 30 µM of 61.5%. `CCn1nc(-c2ccc(Cl)c(F)c2)nc1CC(=O)NCc1ccc(OC)cc1` [Example 16, 2-[3-(4-Chloro-3-fluorophenyl)-1-ethyl-1H-1,2,4-triazol-5-yl]-N-[(4-methoxyphenyl)methyl]acetamide] gave an activation at 30 µM of 44.7%. `CCn1nc(-c2ccc(Cl)c(F)c2)nc1CC(=O)NCc1ccc(OC)nc1` [Example 17, 2-[3-(4-Chloro-3-fluorophenyl)-1-ethyl-1H-1,2,4-triazol-5-yl]-N-[(6-methoxypyridin-3-yl)methyl]acetamide] showed an activation at 30 µM of 26.8%. In the case of `Cn1nc(-c2ccc(Cl)c(F)c2)nc1CC(=O)NCc1cc(Cl)cc(Cl)c1` [Example 18, 2-[3-(4-Chloro-3-fluorophenyl)-1-methyl-1H-1,2,4-triazol-5-yl]-N-[(3,5-dichlorophenyl)methyl]acetamide], the activation at 30 µM is reported as 77.8%. Work on `COc1cccc(CNC(=O)Cc2nc(-c3ccc(Cl)c(F)c3)nn2C)c1` [Example 19, 2-[3-(4-Chloro-3-fluorophenyl)-1-methyl-1H-1,2,4-triazol-5-yl]-N-[(3-methoxyphenyl)methyl]acetamide] yielded an activation at 30 µM of 87.8%. For `Cn1nc(-c2ccc(Cl)c(F)c2)nc1CC(=O)NCc1cccc(F)c1` [Example 20, 2-[3-(4-Chloro-3-fluorophenyl)-1-methyl-1H-1,2,4-triazol-5-yl]-N-[(3-fluorophenyl)methyl]acetamide], the activation at 30 µM was 78.6%. `Cn1nc(-c2ccc(Cl)c(F)c2)nc1CC(=O)NCc1ccc2[nH]ncc2c1` [Example 21, 2-[3-(4-Chloro-3-fluorophenyl)-1-methyl-1H-1,2,4-triazol-5-yl]-N-[(1H-indazol-5-yl)methyl]acetamide] was tested, and the activation at 30 µM was 60.8%. `O=C(Cc1nc(-c2ccc(Cl)c(F)c2)nn1CCO)NCc1cc(Cl)cc(Cl)c1` [Example 23, 2-[3-(4-Chloro-3-fluorophenyl)-1-(2-hydroxyethyl)-1H-1,2,4-triazol-5-yl]-N-[(3,5-dichlorophenyl)methyl]acetamide] was tested, and the activation at 30 µM was 53.8%. `CCn1nc(-c2ccc(Cl)c(F)c2)nc1C(C)C(=O)NCc1cccc(F)c1` (centres unmarked) [Example 24, 2-[3-(4-Chloro-3-fluorophenyl)-1-ethyl-1H-1,2,4-triazol-5-yl]-N-[(3-fluorophenyl)methyl]propanamide] was tested, and the activation at 30 µM was 72.2%. `Cc1cc(CNC(=O)Cc2nc(-c3ccc(Cl)c(F)c3)nn2CC2CC2)cc(C)n1` [Example 26, 2-[3-(4-Chloro-3-fluorophenyl)-1-(cyclopropylmethyl)-1H-1,2,4-triazol-5-yl]-N-[(2,6-dimethylpyridin-4-yl)methyl]acetamide] showed an activation at 30 µM of 87.5%. `O=C(Cc1nc(-c2ccc(Cl)c(F)c2)nn1CC1CC1)NCc1ccc2[nH]ncc2c1` [Example 27, 2-[3-(4-Chloro-3-fluorophenyl)-1-(cyclopropylmethyl)-1H-1,2,4-triazol-5-yl]-N-[(1H-indazol-5-yl)methyl]acetamide] was tested, and the activation at 30 µM was 106%. For `CCn1nc(-c2ccc(OC(F)(F)F)cc2)nc1CC(=O)NCc1cc(Cl)cc(Cl)c1` [Example 28, N-[(3,5-Dichlorophenyl)methyl]-2-{1-ethyl-3-[4-(trifluoromethoxy)phenyl]-1H-1,2,4-triazol-5-yl}acetamide], the activation at 30 µM was 46.3%. Compound `CCn1nc(-c2ccc(C#N)cc2)nc1CC(=O)NCc1cc(Cl)cc(Cl)c1` [Example 30, 2-[3-(4-Cyanophenyl)-1-ethyl-1H-1,2,4-triazol-5-yl]-N-[(3,5-dichlorophenyl)methyl]acetamide] has an activation at 30 µM of 45.9%. Compound `CCOc1cc(-c2nc(CC(=O)NCc3cc(Cl)cc(Cl)c3)n(CC)n2)ccc1Cl` [Example 32, 2-[3-(4-Chloro-3-ethoxyphenyl)-1-ethyl-1H-1,2,4-triazol-5-yl]-N-[(3,5-dichlorophenyl)methyl]acetamide] has an activation at 30 µM of 42.8%. In the case of `CCn1nc(-c2ccc(Cl)c(OC(C)C)c2)nc1CC(=O)NCc1cc(C)nc(C)c1` [Example 35, 2-[3-(4-Chloro-3-isopropyloxyphenyl)-1-ethyl-1H-1,2,4-triazol-5-yl]-N-[(2,6-dimethylpyridin-4-yl)methyl]acetamide], the activation at 30 µM is reported as 28.5%. Compound `CCn1nc(-c2ccc(Cl)c(OC(C)C)c2)nc1CC(=O)N[C@H]1CCc2ccccc21` [Example 36, 2-[3-(4-Chloro-3-isopropyloxyphenyl)-1-ethyl-1H-1,2,4-triazol-5-yl]-N-[(1S)-2,3-dihydro-1H-inden-1-yl]acetamide] has an activation at 30 µM of 33%. In the case of `CCn1nc(-c2ccc(Cl)c(OC(C)C)c2)nc1CC(=O)NCc1cccc(C#N)c1` [Example 37, 2-[3-(4-Chloro-3-isopropyloxyphenyl)-1-ethyl-1H-1,2,4-triazol-5-yl]-N-[(3-cyanophenyl)methyl]acetamide], the activation at 30 µM is reported as 40.2%.

Same assay, conditions: dose response, FIG. 1
For `CCn1nc(-c2ccc(Cl)c(F)c2)nc1CC(=O)NCc1cc(Cl)cc(Cl)c1` [Example 5, 2-[3-(4-Chloro-3-fluorophenyl)-1-ethyl-1H-1,2,4-triazol-5-yl]-N-(3,5-dichlorobenzyl)acetamide], the “activation of PDE4 long form PDE4D5 (FIG. 1)” value was “dose-dependent activation”.
